Measured values published in patent US20110301235A1, “ORGANOSELENIUM COMPOUNDS AND USES THEREOF” (Alquest Therapeutics, Inc., priority 2009, published 2011).
Converted amounts (≈) assume the structure as drawn.

Test: Solubility measurements
Format: physicochemical
Conditions: 100 mM NaCl buffer, aqueous buffer, kinetic from dmso stock; 25 mM Hepes pH 7.4, 100 mM NaCl; 30 minutes at room temperature; centrifuged; absorbance at 260 nm; read-out: solubility (solubility limit)
Protocol: A 2-fold serial dilution of compounds was prepared in 25 mM Hepes pH 7.4, 100 mM NaCl. After 30 minutes at room temperature, precipitates were removed by centrifugation at 18,000×G for 15 min. The supernatant was transferred to a microtiter plate and absorbance at 260 nm was determined. The concentration at which there was no longer a linear increase in absorbance was determined as the solubility limit. The compounds in the examples generally had better solubilities than the reference compound 2-phenyl-1,2-benzisoselenazol-3(2H)-one (66-100 μM), with the compounds described in Examples 1-9 having solubilities of 300, 300, 100, 66-100, 300, 300-600, 1000, 1000, and 1000 μM.
O=c1c2ccccc2[se]n1-c1ccccc1 [2-phenyl-1,2-benzisoselenazol-3(2H)-one, reference compound] gave a solubility at 30 min of 66 to 100 µM (≈ 18.1 to 27.4 µg/mL).

Same assay, conditions: aqueous buffer, kinetic from dmso stock; 25 mM Hepes pH 7.4, 100 mM NaCl; 30 minutes at room temperature; centrifuged; absorbance at 260 nm; read-out: solubility (solubility limit)
CCOC(=O)[C@@H](N)CS[Se]c1ccccc1C(=O)Nc1ccccc1.Cl [Example 3] gave a solubility at 30 min of 100 µM.
Cl.NCCS[Se]c1ccccc1C(=O)Nc1ccccc1 [Example 5] showed a solubility at 30 min of 300 µM.
CCOC(=O)CNC(=O)[C@H](CS[Se]c1ccccc1C(=O)Nc1ccccc1)NC(=O)CC[C@H](N)C(=O)O.Cl [Example 8] gave a solubility at 30 min of 1000 µM.
Cl.N[C@@H](CCC(=O)N[C@@H](CS[Se]c1ccccc1C(=O)Nc1ccccc1)C(=O)NCC(=O)O)C(=O)O [Example 9] gave a solubility at 30 min of 1000 µM.

Same assay, conditions: pH 7.4, aqueous buffer, kinetic from dmso stock
In the case of CC(C)(CO)[C@@H](O)C(=O)NCCC(=O)NCCS[Se]c1ccccc1C(=O)Nc1ccccc1 [Example 1], the solubility at 30 min is reported as 300 µM (≈ 166 µg/mL).
CC(=O)N[C@@H](CS[Se]c1ccccc1C(=O)Nc1ccccc1)C(=O)O [Example 2] gave a solubility at 30 min of 300 µM (≈ 131 µg/mL).
In the case of CCOC(=O)[C@H](CS[Se]c1ccccc1C(=O)Nc1ccccc1)NC(C)=O [Example 4], the solubility at 30 min is reported as 66 to 100 µM (≈ 30.7 to 46.5 µg/mL).
Work on O=C(Nc1ccccc1)c1ccccc1[Se]SCCO [Example 6] yielded a solubility at 30 min of 300 to 600 µM (≈ 106 to 211 µg/mL).
With O=C(Nc1ccccc1)c1ccccc1[Se]SCCS(=O)(=O)O [Example 7] the solubility at 30 min was 1000 µM (≈ 416 µg/mL).
